Test system: IL-8 cytokine release
Assay: IL-8 assay: TNFα-induced IL-8 cytokine release from topically treated epidermal equivalents (EPI 200 HCF)
Type: cell-based, human
Conditions: ester added to 4-hexyl resorcinol-containing composition; result in words
Experimental: An IL-8 assay was performed on the compositions of Example I to investigate the release of pro-inflammatory mediators in human epithelial cells as follows.
Epidermal equivalents (EPI 200 HCF), multilayer and differentiated epidermis consisting of normal human epidermal keratinocytes, were purchased from MatTek (Ashland, Mass.). Upon receipt, epidermal equivalents were incubated for 24 hours at 37° C. in maintenance medium without hydrocortisone. Equivalents were topically treated (2 mg/cm^2) with formulation in example 1 for 2 hours before exposure to 100 ng/mL of Tumor Necrosis Factor-α (TNFα, available from Sigma-Aldrich of St Louis, Mo.). Equivalents were incubated for 4 hours at 37° C. with maintenance medium then supernatants were analyzed for IL-8 cytokine release using commercially available kits (Upstate Biotechnology, Charlottesville, Va.). Percent Reduction in IL-8 was calculated for the compositions relative to Comparative Composition C1 (without ester): Percent Reduction=[1−(Valuesample/Valuebase)]×100 where Valuesample was the IL-8 level of the composition tested and Valuebase was the IL-8 value of Comparative Composition C1.
Additional IL-8 Assays were performed as described in Example II. Compositions (described in Table 2) containing 4-hexyl resorcinol with different esters, each present at 3% by weight, were compared with Composition 6 according to the invention containing 3% by weight pentaerythritol tetraethylhexanoate.

| Molecule | boost in the activity (IL-8 inhibition) of 4-hexyl resorcinol over compositions without the ester |
| --- | --- |
| CCCCCCC(=O)OCC(C)(C)COC(=O)CCCCCC [neopentyl glycol diheptanoate] | only a modest boost or no boost at all |
| CCCCC(CC)C(=O)OCC(COC(=O)C(CC)CCCC)(COC(=O)C(CC)CCCC)COC(=O)C(CC)CCCC (stereo not shown) [pentaerythritol tetraethylhexanoate] | substantial boost |
| isononyl isonanoate | only a modest boost or no boost at all |
| octyldodecyl neopentanoate | substantial boost |
